# Columns and labels:
# Format in all cases: functional
# NCI-H23 [1] = test: Cytotoxicity against human NCI-H23 cells assessed as cell growth at 0.01 uM incubated for 48 hrs by sulforhodamine B assay relative to control; details: NCI-H23, 48 h, read-out: Activity
# KM12 = test: Cytotoxicity against human KM12 cells assessed as cell growth at 0.01 uM incubated for 48 hrs by sulforhodamine B assay relative to control; details: KM12, 48 h, read-out: Activity
# SF-295 [2] = test: Cytotoxicity against human SF295 cells assessed as cell growth at 0.01 uM incubated for 48 hrs by sulforhodamine B assay relative to control; details: SF-295, 48 h, read-out: Activity
# LOX IMVI = test: Cytotoxicity against human LOXIMVI cells assessed as cell growth at 0.01 uM incubated for 48 hrs by sulforhodamine B assay relative to control; details: read-out: Activity
# SK-MEL-2 = test: Cytotoxicity against human SK-MEL-2 cells assessed as cell growth at 0.01 uM incubated for 48 hrs by sulforhodamine B assay relative to control; details: SK-MEL-2, 48 h, read-out: Activity
# ACHN [3] = test: Cytotoxicity against human ACHN cells assessed as cell growth at 0.01 uM incubated for 48 hrs by sulforhodamine B assay relative to control; details: read-out: Activity
# RXF 393 = test: Cytotoxicity against human RXF393 cells assessed as cell growth at 0.01 uM incubated for 48 hrs by sulforhodamine B assay relative to control; details: RXF 393, 48 h, read-out: Activity
# DU-145 = test: Cytotoxicity against human DU145 cells assessed as cell growth at 0.01 uM incubated for 48 hrs by sulforhodamine B assay relative to control; details: DU-145, 48 h, read-out: Activity
# NCI-H23 [4] = test: Cytotoxicity against human NCI-H23 cells assessed as cell growth at 0.1 uM incubated for 48 hrs by sulforhodamine B assay relative to control; details: NCI-H23, 48 h, read-out: Activity
# SF-268 = test: Cytotoxicity against human SF268 cells assessed as cell growth at 0.1 uM incubated for 48 hrs by sulforhodamine B assay relative to control; details: SF-268, 48 h, read-out: Activity
# RPMI-8226 = test: Cytotoxicity against human RPMI8226 cells assessed as cell growth at 1 uM incubated for 48 hrs by sulforhodamine B assay relative to control; details: RPMI-8226, 48 h, read-out: Activity
# NCI-H322M = test: Cytotoxicity against human NCI-H322M cells assessed as cell growth at 1 uM incubated for 48 hrs by sulforhodamine B assay relative to control; details: read-out: Activity
# HCT-15 = test: Cytotoxicity against human HCT15 cells assessed as cell growth at 1 uM incubated for 48 hrs by sulforhodamine B assay relative to control; details: HCT-15, 48 h, read-out: Activity
# MDA-MB-435 = test: Cytotoxicity against human MDA-MB-435 cells assessed as cell growth at 1 uM incubated for 48 hrs by sulforhodamine B assay relative to control; details: MDA-MB-435, 48 h, read-out: Activity
# NCI/ADR-RES [5] = test: Cytotoxicity against human NCI/ADR-RES cells assessed as cell growth at 1 uM incubated for 48 hrs by sulforhodamine B assay relative to control; details: read-out: Activity
# Hs-578T [6] = test: Cytotoxicity against human Hs 578T cells assessed as cell growth at 1 uM incubated for 48 hrs by sulforhodamine B assay relative to control; details: read-out: Activity
# COLO 205 = test: Cytotoxicity against human COLO205 cells assessed as cell growth at 10 uM incubated for 48 hrs by sulforhodamine B assay relative to control; details: COLO 205, 48 h, read-out: Activity
# SF-295 [7] = test: Cytotoxicity against human SF295 cells assessed as cell growth at 10 uM incubated for 48 hrs by sulforhodamine B assay relative to control; details: SF-295, 48 h, read-out: Activity
# M14 [8] = test: Cytotoxicity against human M14 cells assessed as cell growth at 10 uM incubated for 48 hrs by sulforhodamine B assay relative to control; details: M14, 48 h, read-out: Activity
# A498 = test: Cytotoxicity against human A498 cells assessed as cell growth at 10 uM incubated for 48 hrs by sulforhodamine B assay relative to control; details: A498, 48 h, read-out: Activity
# Hs-578T [9] = test: Cytotoxicity against human Hs 578T cells assessed as cell growth at 10 uM incubated for 48 hrs by sulforhodamine B assay relative to control; details: read-out: Activity
# CCRF-CEM = test: Cytotoxicity against human CCRF-CEM cells assessed as cell growth at 100 uM incubated for 48 hrs by sulforhodamine B assay relative to control; details: read-out: Activity
# MOLT-4 = test: Cytotoxicity against human MOLT4 cells assessed as cell growth at 100 uM incubated for 48 hrs by sulforhodamine B assay relative to control; details: MOLT-4, 48 h, read-out: Activity
# EKVX [10] = test: Cytotoxicity against human EKVX cells assessed as cell growth at 100 uM incubated for 48 hrs by sulforhodamine B assay relative to control; details: read-out: Activity
# SF-295 [11] = test: Cytotoxicity against human SF295 cells assessed as cell growth at 100 uM incubated for 48 hrs by sulforhodamine B assay relative to control; details: SF-295, 48 h, read-out: Activity
# M14 [12] = test: Cytotoxicity against human M14 cells assessed as cell growth at 100 uM incubated for 48 hrs by sulforhodamine B assay relative to control; details: M14, 48 h, read-out: Activity
# SK-MEL-28 = test: Cytotoxicity against human SK-MEL-28 cells assessed as cell growth at 100 uM incubated for 48 hrs by sulforhodamine B assay relative to control; details: SK-MEL-28, 48 h, read-out: Activity
# NCI/ADR-RES [13] = test: Cytotoxicity against human NCI/ADR-RES cells assessed as cell growth at 100 uM incubated for 48 hrs by sulforhodamine B assay relative to control; details: read-out: Activity
# MDA-MB-231 = test: Cytotoxicity against human MDA-MB-231 cells assessed as cell growth at 100 uM incubated for 48 hrs by sulforhodamine B assay relative to control; details: MDA-MB-231, 48 h, read-out: Activity
# Hs-578T [14] = test: Cytotoxicity against human Hs 578T cells assessed as cell growth at 100 uM incubated for 48 hrs by sulforhodamine B assay relative to control; details: read-out: Activity
# EKVX [15] = test: Cytotoxicity against human EKVX cells incubated for 48 hrs by sulforhodamine B assay
# U-251 = test: Cytotoxicity against human U251 cells incubated for 48 hrs by sulforhodamine B assay; details: U-251, 48 h
# NCI/ADR-RES [16] = test: Cytotoxicity against human NCI/ADR-RES cells incubated for 48 hrs by sulforhodamine B assay
# ACHN [17] = test: Cytotoxicity against human ACHN cells incubated for 48 hrs by sulforhodamine B assay
# [18] = read-out: LC50 (the source's name)
# [19] = read-out: pLC50 (the source's name) (converted)
smiles,measurement,setting,value
COc1ccc(-c2nocc2-c2cc(OC)c(OC)c(OC)c2)cc1,growth at 0.01 µM,NCI-H23 [1],94%
same,growth at 0.01 µM,KM12,92%
same,growth at 0.01 µM,SF-295 [2],84%
same,growth at 0.01 µM,LOX IMVI,94%
same,growth at 0.01 µM,SK-MEL-2,99%
same,growth at 0.01 µM,ACHN [3],94%
same,growth at 0.01 µM,RXF 393,103%
same,growth at 0.01 µM,DU-145,99%
same,growth at 0.1 µM,NCI-H23 [4],67%
same,growth at 0.1 µM,SF-268,63%
same,growth at 1 µM,RPMI-8226,32%
same,growth at 1 µM,NCI-H322M,46%
same,growth at 1 µM,HCT-15,23%
same,growth at 1 µM,MDA-MB-435,-25%
same,growth at 1 µM,NCI/ADR-RES [5],9%
same,growth at 1 µM,Hs-578T [6],31%
same,growth at 10 µM,COLO 205,-27%
same,growth at 10 µM,SF-295 [7],5%
same,growth at 10 µM,M14 [8],13%
same,growth at 10 µM,A498,-13%
same,growth at 10 µM,Hs-578T [9],28%
same,growth at 100 µM,CCRF-CEM,4%
same,growth at 100 µM,MOLT-4,5%
same,growth at 100 µM,EKVX [10],7%
same,growth at 100 µM,SF-295 [11],-35%
same,growth at 100 µM,M14 [12],-5%
same,growth at 100 µM,SK-MEL-28,-5%
same,growth at 100 µM,NCI/ADR-RES [13],-7%
same,growth at 100 µM,MDA-MB-231,-15%
same,growth at 100 µM,Hs-578T [14],10%
same,GI50,EKVX [15]; read-out: GI50,96 nM
same,CC50,EKVX [15]; [18],> 100 µM
same,TGI,EKVX [15]; read-out: TGI,> 100 µM
same,GI50,EKVX [15]; read-out: pGI50 (converted),95.5 nM
same,CC50,EKVX [15]; [19],> 100 µM
same,TGI,EKVX [15]; read-out: pTGI,> 100 µM
same,GI50,U-251; read-out: GI50,90.6 nM
same,CC50,U-251; [18],> 100 µM
same,TGI,U-251; read-out: TGI,65.8 µM
same,GI50,U-251; read-out: pGI50 (converted),91.2 nM
same,CC50,U-251; [19],> 100 µM
same,TGI,U-251; read-out: pTGI (converted),66.1 µM
same,GI50,NCI/ADR-RES [16]; read-out: GI50,53.8 nM
same,LC50,NCI/ADR-RES [16]; read-out: LC50,> 100 µM
same,TGI,NCI/ADR-RES [16]; read-out: TGI,37.2 µM
same,GI50,NCI/ADR-RES [16]; read-out: pGI50 (converted),53.7 nM
same,LC50,NCI/ADR-RES [16]; read-out: pLC50 (converted),> 100 µM
same,TGI,NCI/ADR-RES [16]; read-out: pTGI (converted),37.2 µM
same,GI50,ACHN [17]; read-out: GI50,1190 nM
same,LC50 (concentration killing 50% of cells),ACHN [17]; read-out: LC50,> 100 µM
same,TGI,ACHN [17]; read-out: TGI,49.4 µM
same,GI50,ACHN [17]; read-out: pGI50 (converted),1200 nM
same,LC50 (concentration killing 50% of cells),ACHN [17]; read-out: pLC50 (converted),> 100 µM
same,TGI,ACHN [17]; read-out: pTGI (converted),49 µM
